Assay results reported in ChEMBL document CHEMBL3603789, “N-Lipidated Peptide Dimers: Effective Antibacterial Agents against Gram-Negative Pathogens through Lipopolysaccharide Permeabilization” (J Med Chem, 2015).
Converted amounts (≈) assume the structure as drawn. The source made the active and inactive calls. No cut-off for these calls is given here. Peptide text beside a SMILES is read from it. * marks the point of attachment. Palmitoyl = CCCCCCCCCCCCCCCC(=O)*; Octanoyl = CCCCCCCC(=O)*

Assays:
Pseudomonas aeruginosa [1] = assay: Induction of cytoplasmic membrane depolarization in Pseudomonas aeruginosa DM23155 at 4 times MIC after 1 hr by fluorescence assay; format: functional, organism-based
Klebsiella pneumoniae [2] = assay: Antibacterial activity against Klebsiella pneumoniae DM4299 after 24 hrs by broth microdilution method; format: functional; settings: DM4299, 24 h
Escherichia coli [3] = assay: Antibacterial activity against Escherichia coli ATCC 25922 after 24 hrs by broth microdilution method; format: functional; settings: ATCC 25922, 24 h
Pseudomonas aeruginosa [4] = assay: Antibacterial activity against Pseudomonas aeruginosa DM23155 after 24 hrs by broth microdilution method; format: functional; settings: DM23155, 24 h
[5] = Toxicity in New Zealand white rabbit erythrocytes assessed as hemolytic activity after 60 mins; format: cell-based, Oryctolagus cuniculus; settings: erythrocyte, 1 h
[6] = Self-aggregation activity of the compound using 8-(Phenylamino)-1-naphthalenesulfonic acid as fluorescent probe at 300 uM by fluorescence assay; format: physicochemical
Pseudomonas aeruginosa [7] = assay: Antibacterial activity against Pseudomonas aeruginosa DR5790 after 24 hrs by broth microdilution method; format: functional
Pseudomonas aeruginosa [8] = assay: Antibacterial activity against Pseudomonas aeruginosa DM4150R after 24 hrs by broth microdilution method; format: functional
Pseudomonas aeruginosa [9] = assay: Antibacterial activity against Pseudomonas aeruginosa DR18531 after 24 hrs by broth microdilution method; format: functional
Pseudomonas aeruginosa [10] = assay: Antibacterial activity against Pseudomonas aeruginosa DM23376 after 24 hrs by broth microdilution method; format: functional
Pseudomonas aeruginosa [11] = assay: Antibacterial activity against Pseudomonas aeruginosa DR4877 after 24 hrs by broth microdilution method; format: functional
Pseudomonas aeruginosa [12] = assay: Antibacterial activity against Pseudomonas aeruginosa ATCC 9027 after 24 hrs by broth microdilution method; format: functional
Pseudomonas aeruginosa [13] = assay: Antibacterial activity against Pseudomonas aeruginosa ATCC 27853 after 24 hrs by broth microdilution method; format: functional
Pseudomonas aeruginosa [14] = assay: Antibacterial activity against Pseudomonas aeruginosa DM23257 after 24 hrs by broth microdilution method; format: functional
Pseudomonas aeruginosa [15] = assay: Antibacterial activity against Pseudomonas aeruginosa DU14476 after 24 hrs by broth microdilution method; format: functional
Klebsiella pneumoniae [16] = assay: Antibacterial activity against Klebsiella pneumoniae DS16260 after 24 hrs by broth microdilution method; format: functional
Escherichia coli [17] = assay: Antibacterial activity against Escherichia coli DM17528 after 24 hrs by broth microdilution method; format: functional
Escherichia coli [18] = assay: Antibacterial activity against Escherichia coli DS17232 after 24 hrs by broth microdilution method; format: functional
Klebsiella pneumoniae [19] = assay: Antibacterial activity against Klebsiella pneumoniae DU31158 after 24 hrs by broth microdilution method; format: functional
Klebsiella pneumoniae [20] = assay: Antibacterial activity against Klebsiella pneumoniae DB55301 after 24 hrs by broth microdilution method; format: functional
Klebsiella pneumoniae [21] = assay: Antibacterial activity against Klebsiella pneumoniae DS07955 after 24 hrs by broth microdilution method; format: functional

## CCCCCCCC(=O)N[C@@H](CCCNC(=N)N)C(=O)NCC(=O)N[C@@H](CCCNC(=N)N)C(=O)N[C@@H](CCCCN)C(=O)NCC(=O)NCC(=O)N[C@@H](CCCNC(=N)N)C(=O)N[C@@H](CCCNC(=N)N)C(=O)N[C@@H](CCCCN)C(=O)N[C@@H](CCCCN)C(=O)O (Octanoyl-RGRKGGRRKK-OH)
Pseudomonas aeruginosa [1]
  Activity: Active
Klebsiella pneumoniae [2]
  MIC: 40 µM (≈ 53 µg/mL)
Escherichia coli [3]
  MIC: 6 µM (≈ 7.95 µg/mL)
Pseudomonas aeruginosa [4]
  MIC: 10 µM (≈ 13.2 µg/mL)
[5]
  HC10: > 10000 µg/mL

## CCCCCCCCCCCCCCCC(=O)N[C@@H](CCCNC(=N)N)C(=O)NCC(=O)N[C@@H](CCCNC(=N)N)C(=O)N[C@@H](CCCCN)C(=O)NCC(=O)NCC(=O)N[C@@H](CCCNC(=N)N)C(=O)N[C@@H](CCCNC(=N)N)C(=O)N[C@@H](CCCCN)C(=O)N[C@@H](CCCCN)C(=O)O (Palmitoyl-RGRKGGRRKK-OH)
Klebsiella pneumoniae [2]
  MIC: 80 µM (≈ 115 µg/mL)
Escherichia coli [3]
  MIC: 10 µM (≈ 14.4 µg/mL)
Pseudomonas aeruginosa [4]
  MIC: 80 µM (≈ 115 µg/mL)
[5]
  HC10: 5064 µg/mL
[6]
  Activity: Not Active

## CCCCCCCCCCCCCCCC(=O)N[C@@H](CCCNC(=N)N)C(=O)NCC(=O)N[C@@H](CCCNC(=N)N)C(=O)N[C@@H](CCCCN)C(=O)N[C@H](C(=O)N[C@H](C(=O)N[C@@H](CCCNC(=N)N)C(=O)N[C@@H](CCCNC(=N)N)C(=O)N[C@@H](CCCCN)C(=O)N[C@@H](CCCCN)C(=O)O)C(C)C)C(C)C (Palmitoyl-RGRKVVRRKK-OH)
Klebsiella pneumoniae [2]
  MIC: 40 µM (≈ 60.8 µg/mL)
Escherichia coli [3]
  MIC: 10 µM (≈ 15.2 µg/mL)
Pseudomonas aeruginosa [4]
  MIC: 80 µM (≈ 122 µg/mL)
[5]
  HC10: 5481 µg/mL
[6]
  Activity: Not Active

## COc1c(N2CCNC(C)C2)c(F)cc2c(=O)c(C(=O)O)cn(C3CC3)c12 (stereo not given) [GATIFLOXACIN]
Pseudomonas aeruginosa [7]; DR5790, 24 h
  MIC: 64 µM (≈ 24 µg/mL)
Pseudomonas aeruginosa [8]
  MIC: 2 µM (≈ 0.751 µg/mL)
Pseudomonas aeruginosa [9]; DR18531, 24 h
  MIC: 8 µM (≈ 3 µg/mL)
Pseudomonas aeruginosa [10]; DM23376, 24 h
  MIC: 4 µM (≈ 1.5 µg/mL)
Pseudomonas aeruginosa [11]; DR4877, 24 h
  MIC: 32 µM (≈ 12 µg/mL)
Pseudomonas aeruginosa [12]; ATCC 9027, 24 h
  MIC: 2 µM (≈ 0.751 µg/mL)
Pseudomonas aeruginosa [13]; ATCC 27853, 24 h
  MIC: 4 µM (≈ 1.5 µg/mL)
Pseudomonas aeruginosa [14]; DM23257, 24 h
  MIC: 2 µM (≈ 0.751 µg/mL)
Pseudomonas aeruginosa [15]; DU14476, 24 h
  MIC: 64 µM (≈ 24 µg/mL)

## C[C@H]1COc2c(N3CCN(C)CC3)c(F)cc3c(=O)c(C(=O)O)cn1c23 [LEVOFLOXACIN]
Klebsiella pneumoniae [16]; DS16260, 24 h
  MIC: 10 µM (≈ 3.61 µg/mL)
Escherichia coli [17]; DM17528, 24 h
  MIC: 80 µM (≈ 28.9 µg/mL)
Escherichia coli [18]; DS17232, 24 h
  MIC: 20 µM (≈ 7.23 µg/mL)
Klebsiella pneumoniae [19]; DU31158, 24 h
  MIC: 0.03 µM (≈ 0.0108 µg/mL)
Klebsiella pneumoniae [20]; DB55301, 24 h
  MIC: 80 µM (≈ 28.9 µg/mL)
Klebsiella pneumoniae [21]; DS07955, 24 h
  MIC: > 100 µM

## GENTAMICIN
Klebsiella pneumoniae [16]
  MIC: 2 µM
Pseudomonas aeruginosa [7]
  MIC: 25 µM
Pseudomonas aeruginosa [8]
  MIC: 0.5 µM
Pseudomonas aeruginosa [9]
  MIC: 30 µM
Escherichia coli [17]
  MIC: < 0.25 µM
Pseudomonas aeruginosa [10]
  MIC: 0.5 µM
Pseudomonas aeruginosa [11]
  MIC: > 60 µM
Pseudomonas aeruginosa [12]
  MIC: 0.25 µM
Pseudomonas aeruginosa [13]
  MIC: 0.5 µM
Pseudomonas aeruginosa [14]
  MIC: 0.5 µM
Escherichia coli [18]
  MIC: 1 µM
Klebsiella pneumoniae [19]
  MIC: < 0.25 µM
Klebsiella pneumoniae [20]
  MIC: 7.5 µM
Pseudomonas aeruginosa [15]
  MIC: 25 µM
Klebsiella pneumoniae [21]
  MIC: > 60 µM
